Assay results from article PMC6522510 (Nature Communications, 2019).
Counter-ions that a name gives are not always drawn.

Assays:
CMK [1] = test: Secondary dose-response HTS, Cell Titer Glo; type: cell-based, human; conditions: CMK; for average effective concentration, CMK: secondary high-throughput screen
MV4-11 [2] = test: cells; design: species or system AML cell lines (8); Secondary HTS, 10-point dose-response in triplicate, Cell Titer Glo viability, four-parameter fit EC50; conditions: Homo sapiens, MV4-11, 72 h, read-out: MV4-11
M07e [3] = test: cells; design: species or system AML cell lines (8); Secondary HTS, 10-point dose-response in triplicate, Cell Titer Glo viability, four-parameter fit EC50; conditions: M-07e, 72 h, read-out: M07e
ML2 = test: Secondary dose-response HTS, Cell Titer Glo; type: cell-based, human; conditions: secondary high-throughput screen; ML-2; read-out: average effective concentration, ML-2
CMK [4] = test system: CMK; design: species or system AML cell lines (8); Primary HTS, single concentration about 10 uM, Cell Titer Glo viability; log10 luminescence, per cent inhibition relative to cycloheximide control; conditions: 72 h, relative to cycloheximide control, log10 luminescence; inhibitor
U937 = test system: U937; design: species or system AML cell lines (8); Primary HTS, single concentration about 10 uM, Cell Titer Glo viability; log10 luminescence, per cent inhibition relative to cycloheximide control; conditions: 72 h, relative to cycloheximide control, log10 luminescence; inhibitor
CMS = test system: CMS; design: species or system AML cell lines (8); Primary HTS, single concentration about 10 uM, Cell Titer Glo viability; log10 luminescence, per cent inhibition relative to cycloheximide control; conditions: 72 h, relative to cycloheximide control, log10 luminescence; inhibitor
MOLM-13 = test system: MOLM-13; design: species or system AML cell lines (8); Primary HTS, single concentration about 10 uM, Cell Titer Glo viability; log10 luminescence, per cent inhibition relative to cycloheximide control; conditions: 72 h, relative to cycloheximide control, log10 luminescence; inhibitor
M07e [5] = test system: M07e; design: species or system AML cell lines (8); Primary HTS, single concentration about 10 uM, Cell Titer Glo viability; log10 luminescence, per cent inhibition relative to cycloheximide control; conditions: 72 h, relative to cycloheximide control, log10 luminescence; inhibitor
CHRF288-11 = test system: CHRF288-11; design: species or system AML cell lines (8); Primary HTS, single concentration about 10 uM, Cell Titer Glo viability; log10 luminescence, per cent inhibition relative to cycloheximide control; conditions: 72 h, relative to cycloheximide control, log10 luminescence; inhibitor
MV4-11 [6] = test system: MV4-11; design: species or system AML cell lines (8); Primary HTS, single concentration about 10 uM, Cell Titer Glo viability; log10 luminescence, per cent inhibition relative to cycloheximide control; conditions: 72 h, relative to cycloheximide control, log10 luminescence; inhibitor
ML-2 = test system: ML-2; design: species or system AML cell lines (8); Primary HTS, single concentration about 10 uM, Cell Titer Glo viability; log10 luminescence, per cent inhibition relative to cycloheximide control; conditions: 72 h, relative to cycloheximide control, log10 luminescence; inhibitor

Row | Compound | CMK %inh (CMK [4]) [%] | U937 %inh (U937) [%] | CMS %inh (CMS) [%] | MOLM-13 %inh (MOLM-13) [%] | M07e %inh (M07e [5]) [%] | CHRF288-11 %inh (CHRF288-11) [%] | MV4-11 %inh (MV4-11 [6]) [%] | ML-2 %inh (ML-2) [%] | also measured
1 | Cn1cccc1/C=C1\C(=O)NC(=O)c2ccccc21 [BYK 204165] | – | – | – | – | – | – | – | – | average effective concentration, CMK (CMK [1]): Inactive
2 | COc1ccc(-c2nc(N3CCOCC3)c3sc(CN(C)c4ncc(C(=O)NO)cn4)cc3n2)cn1 [CUDC-907] | – | – | – | – | – | – | – | – | EC50 (MV4-11 [2]): 0.21 nM
3 | CO[C@H](C(=O)[C@@H](O)[C@@H](C)O)[C@@H]1Cc2cc3cc(O[C@H]4C[C@@H](O[C@H]5C[C@@H](O)[C@H](O)[C@@H](C)O5)[C@H](O)[C@@H](C)O4)c(C)c(O)c3c(O)c2C(=O)[C@H]1O[C@H]1C[C@@H](O[C@H]2C[C@@H](O[C@H]3C[C@](C)(O)[C@H](O)[C@@H](C)O3)[C@@H](O)[C@@H](C)O2)[C@H](O)[C@@H](C)O1 [MITHRAMYCIN A] | – | – | – | – | – | – | – | – | EC50 (M07e [3]): > 10000 nM
4 | O=C1c2c(O)ccc(O)c2C(=O)c2c(NCCNCCO)ccc(NCCNCCO)c21 [MITOXANTHRONE] | – | – | – | – | – | – | – | – | EC50 (ML2): 240 nM
5 | C=CCn1c(=O)c2cnc(Nc3ccc(N4CCN(C)CC4)cc3)nc2n1-c1cccc(C(C)(C)O)n1 [MK-1775] | – | – | – | – | – | – | – | – | EC50 (M07e [3]): > 10000 nM
6 | COC[C@H](NC(=O)c1cnc(C)s1)C(=O)N[C@@H](COC)C(=O)N[C@@H](Cc1ccccc1)C(=O)[C@@]1(C)CO1 [Oprozomib] | – | – | – | – | – | – | – | – | EC50 (MV4-11 [2]): 8.6 nM; EC50 (M07e [3]): 6.3 nM
7 | CS(=O)(=O)N1CCN(Cc2cc3nc(-c4cccc5[nH]ncc45)nc(N4CCOCC4)c3s2)CC1 [Pictilisib, reference compound] | – | – | – | – | – | – | – | – | EC50 (CMK [1]; Homo sapiens, read-out: average effective concentration, CMK): 2300 nM
8 | Cc1cc(Nc2ccc(NC(=O)c3ccc(Nc4ccnc5ccccc45)cc3)cc2)nc(N)n1 [SGI-1027] | – | – | – | – | – | – | – | – | average effective concentration, CMK (CMK [1]): Inactive
9 | CC(C)[C@@H]1C(=O)N(S(C)(=O)=O)[C@@H]2CCN(C(=O)/C=C/CN3CCCCC3)[C@H]21 [SJ000772418-1, GW 311616 HYDROCHLORIDE] | -2.728 | -1.402 | 4.399 | -2.354 | 1.212 | 12.76 | 3.043 | 0.5681 | –
10 | C=CCNC(=O)c1cc([N+](=O)[O-])cc2c(=O)[nH]c(Nc3ccc(Cl)c(Cl)c3)nc12 [SJ000772422-1, AZ 10417808] | -3.629 | -1.321 | 0.1501 | 0.5205 | 3.044 | 0.7864 | 3.564 | 0.702 | –
11 | COC[C@@H](NC(=O)[C@@H](NC(=O)[C@H](CCCc1ccc(-c2ccccc2)c(C)c1)CC(=O)O)C(C)(C)C)c1ccccc1 [SJ000772423-1, UK 370106] | -0.5196 | 2.263 | 4.79 | 2.493 | 2.4 | 6.021 | 2.629 | 0.2215 | –
12 | NC(N)=NCCS[C@@H](CC(=O)O)C(=O)O [SJ000772425-1, GEMSA] | -1.464 | 0.2934 | -0.9686 | 0.138 | 1.501 | -3.397 | 3.627 | 0.5506 | –
13 | COc1cc(C(C)C)c2c(c1)S(=O)(=O)N(COc1cc(=O)n3cccc(OCCN4CCCCC4)c3n1)C2=O [SJ000772427-1, SSR 69071] | 0.212 | 2.526 | 3.665 | 1.802 | 1.75 | -3.004 | 4.165 | -0.6502 | –
